Experimental data: patent US7026354B2 (priority 2001, dated 2006)
Several values for one entry are separate records, joined by “and”; a condition that tells them apart may be missing. Equal values may be shown once. Read-outs that look alike come from different tables or passages of the source.

What was measured:
Type in all cases: cell-based
S. aureus (MN8) [1] = tested on: S. aureus (MN8)
S. aureus (MN8) [2] = tested on: S. aureus (MN8); remark: listed apart in the source
S. aureus strain RN 6390 = tested on: S. aureus strain RN 6390
S. aureus FRI-1187 [3] = tested on: S. aureus FRI-1187
S. aureus FRI-1169 [4] = tested on: S. aureus FRI-1169
S. aureus FRI-1187 [5] = conditions: for ELISA: TSST-1 ng/OD unit / Reduction of Toxin %: Table 5, FRI-1187
S. aureus FRI-1169 [6] = tested on: S. aureus FRI-1169; remark: listed apart in the source
[7] = Table 1, 0.5% test compound, 24 h
[8] = Table 1, 0.5% test compound, vs control
[9] = Table 6, Cetiol 1414E 0, PEA 0.05%
[10] = Table 6, Cetiol 1414E 0, PEA 0.15%
[11] = Table 6, Cetiol 1414E 0, PEA 0.3%
[12] = Table 6, Cetiol 1414E 0, PEA 0.5%
[13] = Table 10, Cetiol 2.5 mM, PABA 0%
[14] = Table 10, Cetiol 10 mM, PABA 0%

With NC(=O)c1ccccc1O [2-hydroxybenzamide] as the compound, how does the CFU/mL (S. aureus (MN8) [1]; 24 h) read?
The CFU/mL was 9.0E+07 CFU/mL.

What about the “Optical Density” value (S. aureus (MN8) [1]; 24 h, 600 nm) of the same compound?
Its value is 0.549.

And the “ELISA: TSST-1 ng/OD unit” value (S. aureus (MN8) [2]; Table 1, 1.0% test compound, 24 h)?
The value was 65 ng/OD unit.

And the “Reduction of Toxin %” value (S. aureus (MN8) [2]; Table 1, 1.0% test compound, vs control)?
Its value is 95%.

What does the source list for O=C(O)c1ccccc1O [2-hydroxybenzoic acid]?
CFU/mL (S. aureus (MN8) [1]): 1.48E+09 CFU/mL; Optical Density (S. aureus (MN8) [1]): 0.682; ELISA: TSST-1 ng/OD unit (S. aureus (MN8) [2]; Table 2, 0.2% test compound): 193 ng/OD unit

Which CFU/mL (S. aureus (MN8) [1]) does the source give for CC(=O)Nc1ccc(O)cc1 [4-Acetamidophenol] here?
Its CFU/mL is 2.4E+09 CFU/mL.

And the “Optical Density” value (S. aureus (MN8) [1])?
Its value is 0.629.

And the “ELISA: TSST-1 ng/OD unit” value (S. aureus (MN8) [2]; Table 4, 0.5% test compound)?
The value was 230 ng/OD unit.

CC(=O)N[C@@H](Cc1ccc(O)cc1)C(=O)O [Acetyl tyrosine] was tested. Which CFU/mL (S. aureus (MN8) [1]) did it give?
Its CFU/mL is 1.7E+09 CFU/mL.

What about the “Optical Density” value (S. aureus (MN8) [1]) of the same compound?
Its value is 0.549.

And the “ELISA: TSST-1 ng/OD unit” value (S. aureus (MN8) [2]; Table 3, 0.5% test compound)?
Its value is 436 ng/OD unit.

How did the CFU/mL (S. aureus (MN8) [1]; 24 h) turn out when OCc1ccccc1 [Benzyl alcohol] was run?
The CFU/mL was 1.8E+08 CFU/mL.

What about the “Optical Density” value (S. aureus (MN8) [1]; 24 h, 600 nm) of the same compound?
The value was 0.792.

And the “ELISA: TSST-1 ng/OD unit” value (S. aureus (MN8) [2]; [7])?
Its value is 131 ng/OD unit.

And the “Reduction of Toxin %” value (S. aureus (MN8) [2]; [8])?
Its value is 91%.

How did the CFU/mL (S. aureus (MN8) [1]) turn out when O=C(O)c1cc(O)c(O)c(O)c1 [Gallic acid] was run?
Its CFU/mL is 1.2E+09 CFU/mL.

What about the “Optical Density” value (S. aureus (MN8) [1]) of the same compound?
The value was 0.492.

What about the “ELISA: TSST-1 ng/OD unit” value (S. aureus (MN8) [2]; Table 3, 0.5% test compound) of the same compound?
Its value is 63 ng/OD unit.

Which results are given for OCCc1ccccc1 [Phenylethyl alcohol]?
Hemolytic Endpoint 50% lysis (S. aureus strain RN 6390): None Detected; production of alpha toxin (S. aureus strain RN 6390): significantly reduced; % Toxin Inhibition (S. aureus strain RN 6390; Table 7, 0.3% test compound): 97%; Hemolytic Endpoint 50% lysis (S. aureus strain RN 6390; Table 7, 0.3% test compound, reciprocal of the dilution giving 50% lysis): 3; % Toxin Inhibition (S. aureus strain RN 6390; Table 7, 0.4% test compound): 100%; Optical Density (S. aureus FRI-1187 [3]): 1.296 and 1.244; effect on the growth of S. aureus cells (S. aureus FRI-1187 [3]): minimal, if any, effect on the growth; Log CFU/mL (S. aureus (MN8) [1]): 8.6 Log CFU/mL and 8.7 Log CFU/mL and 8.5 Log CFU/mL; OD (S. aureus (MN8) [1]): 0.712 and 0.730 and 0.758 and 0.721; Optical Density (S. aureus (MN8) [1]): 0.542 and 0.551 and 0.476 and 0.554; Optical Density (S. aureus FRI-1169 [4]): 1.263 and 1.208; effect on the growth of S. aureus cells (S. aureus FRI-1169 [4]): minimal, if any, effect on the growth; reduction of the amount of exotoxin production (S. aureus FRI-1187 [5]): significantly reduced; ELISA: TSST-1 ng/OD unit (S. aureus FRI-1187 [5]; 0.25% test compound): 1 ng/OD unit; Reduction of Toxin % (S. aureus FRI-1187 [5]; 0.25% test compound): 98%; ELISA: TSST-1 ng/OD unit (S. aureus FRI-1187 [5]; 0.5% test compound): none detected; Reduction of Toxin % (S. aureus FRI-1187 [5]; 0.5% test compound): 100%; % Reduction (S. aureus (MN8) [2]): 57% and 80% and 93% and 98%; ELISA: TSST-1 ng/OD unit (S. aureus (MN8) [2]; [7]): 60 ng/OD unit; Reduction of Toxin % (S. aureus (MN8) [2]; [8]): 96%; ELISA: TSST-1 ng/OD unit (S. aureus (MN8) [2]; Table 2, 0.5% test compound): 68 ng/OD unit; ELISA: TSST-1 ng/OD unit (S. aureus (MN8) [2]; Table 3, 0.5% test compound): 46 ng/OD unit; ELISA: TSST-1 ng/OD unit (S. aureus (MN8) [2]; Table 4, 0.5% test compound): 25 ng/OD unit; Reduction of Toxin % (S. aureus (MN8) [2]; [9]): 32%; ng TSST-1 per CFU (S. aureus (MN8) [2]; [9]): 266 ng per CFU; ng TSST-1 per mL (S. aureus (MN8) [2]; [9]): 826 ng per mL; Reduction of Toxin % (S. aureus (MN8) [2]; [10]): 67%; ng TSST-1 per CFU (S. aureus (MN8) [2]; [10]): 129 ng per CFU; ng TSST-1 per mL (S. aureus (MN8) [2]; [10]): 561 ng per mL; Reduction of Toxin % (S. aureus (MN8) [2]; [11]): 90%; ng TSST-1 per CFU (S. aureus (MN8) [2]; [11]): 39 ng per CFU; ng TSST-1 per mL (S. aureus (MN8) [2]; [11]): 201 ng per mL; Reduction of Toxin % (S. aureus (MN8) [2]; [12]): 93%; ng TSST-1 per CFU (S. aureus (MN8) [2]; [12]): 27 ng per CFU; ng TSST-1 per mL (S. aureus (MN8) [2]; [12]): 106 ng per mL; ng TSST-1/OD (S. aureus (MN8) [2]; Table 9, Glucopon 0 mM, PEA 0.05%): 323 ng/OD; ng TSST-1/OD (S. aureus (MN8) [2]; Table 9, Glucopon 0 mM, PEA 0.15%): 152 ng/OD; ng TSST-1/OD (S. aureus (MN8) [2]; Table 9, Glucopon 0 mM, PEA 0.3%): 54 ng/OD; ng TSST-1/OD (S. aureus (MN8) [2]; Table 9, Glucopon 0 mM, PEA 0.50%): 13 ng/OD; Reduction of Toxin % (S. aureus FRI-1169 [6]): 99% and 95%

O=C(O)/C=C/c1ccccc1 [Trans-cinnamic acid] was tested. Which CFU/mL (S. aureus (MN8) [1]) did it give?
Its CFU/mL is 1.7E+09 CFU/mL.

What about the “Optical Density” value (S. aureus (MN8) [1]) of the same compound?
Its value is 0.549.

What about the “ELISA: TSST-1 ng/OD unit” value (S. aureus (MN8) [2]; Table 3, 0.5% test compound) of the same compound?
The value was 436 ng/OD unit.

Which CFU/mL (S. aureus (MN8) [1]) does the source give for Nc1ccc(C(=O)O)cc1 [p-aminobenzoic acid] here?
The CFU/mL was 1.1E+09 CFU/mL and 1.53E+09 CFU/mL and 1.85E+09 CFU/mL and 1.79E+09 CFU/mL and 1.15E+09 CFU/mL.

And the OD (S. aureus (MN8) [1])?
The OD was 0.546 and 0.558 and 0.599 and 0.589.

And the “Optical Density” value (S. aureus (MN8) [1])?
Its value is 0.618.

What about the “ELISA: TSST-1 ng/OD unit” value (S. aureus (MN8) [2]; Table 2, 0.2% test compound) of the same compound?
The value was 317 ng/OD unit.

And the “ng TSST-1/OD” value (S. aureus (MN8) [2]; Table 10, Cetiol 0 mM, PABA 0.05%)?
Its value is 5670 ng/OD.

What about the “ng TSST-1/OD” value (S. aureus (MN8) [2]; Table 10, Cetiol 0 mM, PABA 0.09%) of the same compound?
Its value is 3389 ng/OD.

And the “ng TSST-1/OD” value (S. aureus (MN8) [2]; Table 10, Cetiol 0 mM, PABA 0.19%)?
The value was 1975 ng/OD.

What about the “ng TSST-1/OD” value (S. aureus (MN8) [2]; Table 10, Cetiol 0 mM, PABA 0.38%) of the same compound?
The value was 1039 ng/OD.

Which “production of alpha toxin” value (S. aureus strain RN 6390) does the source give for COC(=O)c1ccc(O)cc1 [p-hydroxybenzoic acid, methyl ester] here?
Its value is “significantly reduced”.

And the “% Toxin Inhibition” value (S. aureus strain RN 6390; Table 8, 0.1% test compound)?
Its value is 70%.

And the “Hemolytic Endpoint 50% lysis” value (S. aureus strain RN 6390; Table 8, 0.1% test compound, reciprocal of the dilution giving 50% lysis)?
The value was 79.

What about the “% Toxin Inhibition” value (S. aureus strain RN 6390; Table 8, 0.2% test compound) of the same compound?
The value was 94%.

And the “Hemolytic Endpoint 50% lysis” value (S. aureus strain RN 6390; Table 8, 0.2% test compound, reciprocal of the dilution giving 50% lysis)?
Its value is 16.

And the CFU/mL (S. aureus (MN8) [1])?
The CFU/mL was over 1.5E+08 CFU/mL.

What about the “Optical Density” value (S. aureus (MN8) [1]) of the same compound?
Its value is 0.356.

What about the “ELISA: TSST-1 ng/OD unit” value (S. aureus (MN8) [2]; Table 2, 0.2% test compound) of the same compound?
The value was 506 ng/OD unit.

Which results are given for myreth-3 myristate [Cetiol 1414E]?
Log CFU/mL (S. aureus (MN8) [1]): 8.6 Log CFU/mL and 8.5 Log CFU/mL; OD (S. aureus (MN8) [1]): 0.881 and 0.976 and 0.637; ng TSST-1 per CFU (S. aureus (MN8) [2]; Table 6, Cetiol 1414E 2.5 mM, PEA 0): 239 ng per CFU; ng TSST-1 per CFU (S. aureus (MN8) [2]; Table 6, Cetiol 1414E 5 mM, PEA 0): 172 ng per CFU; ng TSST-1 per CFU (S. aureus (MN8) [2]; Table 6, Cetiol 1414E 10 mM, PEA 0): 61 ng per CFU; % Reduction (S. aureus (MN8) [2]; [13]): 31%; ng TSST-1/OD (S. aureus (MN8) [2]; [13]): 3367 ng/OD; % Reduction (S. aureus (MN8) [2]; Table 10, Cetiol 5 mM, PABA 0%): 51%; ng TSST-1/OD (S. aureus (MN8) [2]; Table 10, Cetiol 5 mM, PABA 0%): 2419 ng/OD; % Reduction (S. aureus (MN8) [2]; [14]): 53%; ng TSST-1/OD (S. aureus (MN8) [2]; [14]): 2286 ng/OD
